Experimental data reported in PubChem BioAssay AID2286 (Southern Research Specialized Biocontainment Screening …, 2010).
Active and inactive are the calls of the source.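 The calls were made as follows: active = minimum cell viability of 80% or lower across the dose range, counted as toxic; inactive = minimum cell viability above 80%.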

Assay: MAGI-CCR5 and HeLa-R5-16 cytotoxicity, dose response, cytotoxicity control for HIV-1 fusion inhibitor project, cell-based, MAGI and MAGI-HeLa co-culture (AID 2286);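 also: cells exposed to compound for at least 64 h before ATP readout; 100% = median of DMSO vehicle wells with no ATP signal meaning 0%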
Conditions: MAGI-CCR5 cells viability, CellTiter-Glo ATP luminescence; for minimum viability: measured here: MAGI minimum viability across doses
[1] = MAGI-HeLa co-culture viability, at 50 µM, stronger effect = lower value
[2] = at 1.56 µM, stronger effect = lower value
[3] = at 6.25 µM, stronger effect = lower value
[4] = at 12.5 µM, stronger effect = lower value
[5] = at 3.13 µM, stronger effect = lower value

Structure (SMILES)	viability [1]	viability (at 50 µM (top of the series))	minimum viability (at 50 µM, stronger effect = lower value)	other results
O=C(O)CSCC(=O)N(Cc1ccccc1)c1nc(-c2ccccc2)c(-c2ccccc2)s1	121%	89% (inactive)	89%	–
CCc1nnc(NS(=O)(=O)c2ccc(NC(=O)/C=C/c3ccccc3Cl)cc2)s1	109%	96.3% (inactive)	–	minimum viability [2]: 95.9%
CSc1ccc(C(c2c(C(=O)O)[nH]c3ccccc23)c2c(C(=O)O)[nH]c3ccccc23)cc1	89.8%	92.8% (inactive)	–	minimum viability [3]: 90.5%
CC(C)(C)CC(C)(C)c1ccc(OCC(=O)N/N=C/c2ccc(S(=O)(=O)O)o2)cc1	104%	87.8% (inactive)	–	minimum viability [4]: 81.1%
Cc1c(CCC(=O)O)c(=O)oc2c(C)c3occ(-c4ccc(Br)cc4)c3cc12	97.7%	–	–	minimum viability [4]: 72.5%
CN1C(=O)/C(=C/c2ccc(C(=O)Nc3ccc(O)cc3C(=O)O)cc2)SC1=S	104%	91% (inactive)	–	minimum viability [4]: 87.9%
O=C(CCN1C(=O)/C(=C\c2ccccc2F)SC1=S)Nc1ccc(C(=O)O)c(O)c1	114%	93.9% (inactive)	–	minimum viability [5]: 85.5%
COc1ccc(-c2coc3c(C)c4oc(=O)c(CCC(=O)O)c(C)c4cc23)cc1	91.9%	–	47.8%	–
O=C1NC(=O)/C(=C/c2ccc(-c3cc(C(=O)O)ccc3Cl)o2)S1	105%	91% (inactive)	–	minimum viability [3]: 88.5%
Cc1ccc(-n2cccc2/C=C2/C(=N)N3C(=NC2=O)SN=C3S(C)(=O)=O)cc1Cl	96.7%	–	77.3%	–
O=C(COc1ccc(Cl)cc1Cl)Nc1ccc(C(=O)Nc2ccccc2C(=O)O)cc1	92.6%	–	71.9%	–
COc1cc(C(c2c(C(=O)O)[nH]c3ccccc23)c2c(C(=O)O)[nH]c3ccccc23)ccc1OCc1ccccc1	90.3%	85.8% (inactive)	–	minimum viability [4]: 82.7%
O=C(CN1C(=O)/C(=C2\SC(=S)N(CCS(=O)(=O)O)C2=O)c2ccccc21)Nc1cccc(Br)c1	113%	83.3% (inactive)	83.3%	–
O=C(O)CN1C(=O)/C(=C\c2cc(Br)ccc2OCc2ccccc2F)SC1=S	113%	101% (inactive)	101%	–
CCCCCc1c2c(cc(O)c1C(=O)O)OC(=O)c1c(cc(OC)cc1C(=O)CCCC)O2	82%	84.4% (inactive)	84.4%	–
CCOC(=O)C1=C(C)N=c2s/c(=C/c3ccc(OCC(=O)O)cc3)c(=O)n2C1c1ccc(SC)cc1 (stereo not drawn)	101%	88.1% (inactive)	88.1%	–
CCOc1cc(/C=N/NC(=O)c2ccc(-c3csc(Nc4ccc(C)cc4)n3)cc2)ccc1OCC(=O)O	92.6%	90.2% (inactive)	–	minimum viability [4]: 83.3%
COC(=O)c1sc(-c2ccc(C(C)(C)C)cc2)cc1NC(=O)COCC(=O)O	89%	–	74.5%	–
O=C(NCc1ccccc1)c1ccc2c(=O)[nH]c3c(C(=O)NCC4CCCO4)sc(=S)n3c2c1 (stereo not drawn)	106%	86.3% (inactive)	86.3%	–
COc1ccc(O)c(C(=O)c2cc(SCC(=O)O)c3nc4sc5c(c4c(=O)n3c2)CCCC5)c1	122%	96.7% (inactive)	–	minimum viability [4]: 90.5%
COc1ccc(OC)c(N2C(=O)/C(=C/c3ccco3)C(=O)NC2=S)c1	90.2%	94.8% (inactive)	–	minimum viability [3]: 83.8%
O=C(O)c1ccccc1N=Nc1c(O)[nH]c2ccc([N+](=O)[O-])cc12	87.3%	90.2% (inactive)	90.2%	–
CC(c1ccccc1)N1C(=O)c2ccc(C(=O)Nc3ccc(Br)cc3C(=O)O)cc2C1=O (stereo not drawn)	118%	96.8% (inactive)	–	minimum viability [5]: 86.6%
COc1cc(/C=C2/C(=N)N3C(=NC2=O)SN=C3S(C)(=O)=O)ccc1OS(=O)(=O)c1ccccc1	94.8%	87% (inactive)	–	minimum viability (at 25 µM, stronger effect = lower value): 84.7%
COc1cc(/C=C2\C(=N)N3N=C(S(C)(=O)=O)SC3=NC2=O)ccc1OC(=O)c1cccs1	109%	96.7% (inactive)	–	minimum viability (at 0.2 µM, stronger effect = lower value): 86.5%
O=C1N=c2ccc(Br)cc2=C1c1sc(=S)n(NS(=O)(=O)c2ccccc2)c1O	89.2%	102% (inactive)	–	minimum viability [5]: 98.5%

Structure (SMILES)	viability [1]	viability (at 50 µM (top of the series))	minimum viability (at 50 µM, stronger effect = lower value)	other results
CCOC(=O)C1=C(C)N=c2s/c(=C\c3ccc(OCC(=O)O)cc3)c(=O)n2C1c1ccc(OC(C)C)cc1 (stereo not drawn)	105%	–	65.8%	–
COc1ccc(/C=N/NC(=O)c2[nH]c3ccc(Br)cc3c2-c2ccccc2)c(C(=O)O)c1OC	95%	90.4% (inactive)	90.4%	–
Cc1cc(/C=C2\C(=N)N3N=C(S(C)(=O)=O)SC3=NC2=O)c(C)n1Cc1ccccc1	116%	110% (inactive)	–	minimum viability (at 25 µM, stronger effect = lower value): 106%
COc1cc(/C=N/Nc2ccc(Cl)c(C(=O)O)c2)ccc1OC(=O)c1ccccc1F	105%	103% (inactive)	–	minimum viability [5]: 95.8%
COc1ccc(OC)c(/C=C2\SC(=S)N(NS(=O)(=O)c3ccc(C)cc3)C2=O)c1	107%	101% (inactive)	–	minimum viability [2]: 90.5%
CC(C)S(=O)(=O)C1=NSC2=NC(=O)/C(=C\c3ccc(OC(=O)c4ccco4)cc3)C(=N)N21	100%	103% (inactive)	–	minimum viability [2]: 84.2%
COc1cc(/C=N/NC(=O)C(Cc2c[nH]c3ccccc23)NC(=O)OCc2ccccc2)cc([N+](=O)[O-])c1O (stereo not drawn)	107%	95% (inactive)	–	minimum viability (at 25 µM, stronger effect = lower value): 92.5%
COc1cc(/C=C2\S/C(=N/S(=O)(=O)c3ccc(C)cc3)NC2=O)c([N+](=O)[O-])cc1OC	98.5%	98.6% (inactive)	98.6%	–
CCOC(=O)C1=C(C)N=c2s/c(=C\c3ccc(OCC(=O)O)c(OC)c3)c(=O)n2C1c1ccc(OC)cc1 (stereo not drawn)	107%	97.1% (inactive)	–	minimum viability [2]: 88%
CCOc1ccc(NC(=NCc2ccc3c(c2)OCO3)SC2CC(=O)N(c3ccc(C(=O)O)cc3)C2=O)cc1 (stereo not drawn)	81.3%	–	–	viability (at 25 µM (top of the series)): 84.3% (inactive); minimum viability (at 25 µM, stronger effect = lower value): 84.3%
CC(C)(C)c1cc(-c2csc(Nc3ccccc3)[n+]2Cc2ccc(C(=O)O)cc2)cc(C(C)(C)C)c1O	96.4%	–	72.2%	–
COc1cc(/C=C(\C#N)c2nc3ccc(C)cc3[nH]2)cc([N+](=O)[O-])c1O	90.4%	–	74.1%	–
O=C(N/N=C/c1cc(Br)c(O)c(Br)c1)c1cc2c(ccc3ccccc32)o1	112%	–	–	viability (at 25 µM (top of the series)): 81.4% (inactive); minimum viability (at 25 µM, stronger effect = lower value): 81.4%
CCOc1cc(/C=C2/C(=N)N3C(=NC2=O)SN=C3S(=O)(=O)C(C)C)ccc1OC(=O)c1ccco1	103%	91.5% (inactive)	–	minimum viability [4]: 86.8%
CCc1nnc(NS(=O)(=O)c2ccc(NC(=S)NC(=O)/C=C/c3ccc(F)cc3)cc2)s1	115%	89.6% (inactive)	–	minimum viability [4]: 83.8%
COc1cc(/C=N/Nc2ccc(Cl)c(C(=O)O)c2)ccc1OC(=O)c1ccc(F)cc1	103%	89.8% (inactive)	89.8%	–
COc1ccccc1OCCOc1ccc(/C=C2\C(=N)N3N=C(S(C)(=O)=O)SC3=NC2=O)cc1	98.1%	89.2% (inactive)	89.2%	–
O=C1NN(c2ccc(Cl)cc2)C(=O)/C1=C\c1ccc(-c2cccc(C(=O)O)c2)o1	81.8%	83.3% (inactive)	83.3%	–
O=C(O)C1Nc2c(cccc2C(F)(F)F)C2C=CCC12 (stereo not drawn)	124%	106% (inactive)	–	minimum viability [4]: 86.1%
COc1cccc(C2C3=C(N=c4s/c(=C\c5ccc(OCC(=O)O)cc5)c(=O)n42)c2ccccc2CC3)c1 (stereo not drawn)	103%	90.2% (inactive)	–	minimum viability [4]: 85%
COc1cc(/C=C2\C(=N)N3N=C(S(C)(=O)=O)SC3=NC2=O)cc(OC)c1OCCOc1ccccc1C	124%	106% (inactive)	–	minimum viability [4]: 102%
CC(C)(C)c1ccc2c(c1)OC(C(=O)N/N=C\c1ccc(-c3cccc(C(=O)O)c3)o1)CO2 (stereo not drawn)	105%	87.8% (inactive)	–	minimum viability [5]: 87.5%
COc1cc(Cl)cc(C(c2c(C(=O)O)[nH]c3ccccc23)c2c(C(=O)O)[nH]c3ccccc23)c1O	100%	–	–	viability (at 25 µM (top of the series)): 80.5% (inactive); minimum viability (at 25 µM, stronger effect = lower value): 80.5%
CCS(=O)(=O)C1=NN2C(=N)/C(=C\c3ccc(OS(=O)(=O)c4ccccc4)c(OC)c3)C(=O)N=C2S1	97.9%	85.5% (inactive)	–	minimum viability [2]: 82.4%
O=C(O)c1cc(NN=C2c3ccccc3-c3ccccc32)ccc1Cl	114%	93.1% (inactive)	93.1%	–
O=C(O)COc1ccccc1/C=N/Nc1ccc(S(=O)(=O)Nc2ccc(Cl)cc2)cc1[N+](=O)[O-]	103%	99.2% (inactive)	–	minimum viability (at 25 µM, stronger effect = lower value): 90.6%
